Measurements: patent publication US11111242B2, “Pyrrolo[2,3-d]pyrimidinyl, pyrrolo[2,3-b]pyrazinyl and pyrrolo[2,3-d]pyridinyl acrylamides” (Pfizer Inc., priority 2013, dated 2021)
Like-named read-outs stand apart in the source and are kept apart here.

What was measured:
[1] = system: IL-15 induced STAT5 phosphorylation in Human Whole Blood (total lymphocytes); test: HWB IL-15 Induced STAT5 Phosphorylation Assay; assay type: cell-based; details: Lymphocyte, IL-15 stimulated, read-out: HWB-IL15-pSTAT5 IC50
Description: HWB IL-15 Induced STAT5 Phosphorylation Assay
After mixing and incubating for 45 minutes at 37° C., 5 μl D-PBS (unstimulated control) or 20× stocks of 5 μl human IL-15 (final concentration is 50 ng/ml) were added, and mixed three times. After incubating 15 minutes at 37° C., 1× Lyse/Fix Buffer (BD Phosflow 5× Lyse/Fix Buffer) was added to all wells at 1000 μl/well, then incubated for 20 minutes at 37° C. and spun 5 mins at 1200 rpm. […] Following incubating at 4° C. over night, all the samples were transferred to 96-well polypropylene U-bottom plate, and checked by flow cytometry gated on total lymphocytes.

[2] = system: IL-15 induced P-STAT5 in human PBMC (total lymphocytes); test: PBMC IL-15 Induced P-STAT5; assay type: cell-based; details: IL-15 stimulated, read-out: PBMC IL15-pSTAT5 IC50
Description: PBMC IL-15 Induced P-STAT5
Frozen human PBMC (200-250 million cells/vial) was thawed at 37° C. The cells were transferred to 10 mL warm medium in a 50-mL conical tube, and centrifuged at 1,200 RPM at room temperature for 5 min. The supernatant was aspirated. […] After adding 47 ml D-PBS (37° C.) to PBMC/FBS suspension, centrifuging at 1,200 RPM at room temperature for 5 min, and aspirating the supernatant, the cells were resuspended in 20 mL warm RPMI medium. Ninety μL of cell suspension were pipetted per well in a 96-well, deep-well, V-bottom plate, and the plate was incubated at 37° C. for 30 min. […] After adding 0.8 mL staining buffer per well, the plates were centrifuged at 1,200 RPM (Beckman GS-6R or Sorvall Legend) at room temperature for 5 min, and again the supernatant was aspirated using a 8-channel or 12-channel manifold. The plate was vortexed, and 0.35 mL 90% methanol/10% H2O (−20° C.) was added per well, and the plate incubated on ice for 20 min. After again adding 0.8 mL staining buffer per well, the plates were centrifuged at 1,200 RPM (Beckman GS-6R or Sorvall Legend) at room temperature for 5 min, and again the supernatant was aspirated using a 8-channel or 12-channel manifold, and then 0.8 mL Staining buffer was added per well. After once again adding 0.8 mL staining buffer per well, the plates were centrifuged at 1,200 RPM (Beckman GS-6R or Sorvall Legend) at room temperature for 5 min, and again the supernatant was aspirated using a 8-channel or 12-channel manifold. […] Samples of 250 μL/well were transferred to a 96-well U-bottom plate, and the FACS analysis was performed gating on total lymphocytes. Samples were analyzed using a BD Calibur™ or BD FACSCanto™ flow cytometer equipped with the BD High Throughput Sampler.

Row | SMILES | IC50 [1] [nM] | IC50 ([2]; Homo sapiens, PBMC) [nM] | IC50 [2] [nM]
1 | C=CC(=O)N1CC[C@@H](F)[C@@H](Nc2ncnc3[nH]ccc23)C1 [Example 54, 1-((3S,4R)-3-((7H-Pyrrolo[2,3-d]pyrimidin-4-yl)amino)-4-fluoropiperidin-1-yl)prop-2-en-1-one] | 366 | 222 | 
2 | C=CC(=O)N1CCC(Nc2cnc3[nH]cc(C(=O)N[C@@H]4CC[C@H](F)C4)c3n2)CC1 [Example 255, 2-[(1-acryloylpiperidin-4-yl)amino]-N-[(1R,3S)-3-fluorocyclopentyl]-5H-pyrrolo[2,3-b]pyrazine-7-carboxamide] | 818 | 130 | 
3 | C=CC(=O)N1C[C@H](Nc2ncnc3[nH]ccc23)CC[C@@H]1C (racemic) [Example 129, rac-1-[(2S,5R)-2-Methyl-5-(7H-pyrrolo[2,3-d]pyrimidin-4-ylamino)piperidin-1-yl]prop-2-en-1-one] | 797 |  | 114
4 | C=CC(=O)N1CC(Nc2cnc3[nH]ccc3n2)C1 [Example 337, 1-(3-((5H-Pyrrolo[2,3-b]pyrazin-2-yl)amino)azetidin-1-yl)prop-2-en-1-one] | 631 | 237 | 
5 | C=CC(=O)N1CCC(Nc2cnc3[nH]cc(-c4cnc(OC)nc4)c3n2)CC1 [Example 210, 1-(4-{[7-(2-methoxypyrimidin-5-yl)-5H-pyrrolo[2,3-b]pyrazin-2-yl]amino}piperidin-1-yl)prop-2-en-1-one] | 2680 | 462 | 
6 | C=CC(=O)N1CCN(c2cnc3[nH]cc(C(=O)NC(C)C)c3n2)CC1 [Example 174, 2-(4-acryloylpiperazin-1-yl)-N-(propan-2-yl)-5H-pyrrolo[2,3-b]pyrazine-7-carboxamide] | 623 |  | 58.4
7 | C=CC(=O)N1CCC(Nc2cnc3[nH]cc(C(=O)NCCC(F)(F)F)c3n2)CC1 [Example 246, 2-[(1-acryloylpiperidin-4-yl)amino]-N-(3,3,3-trifluoropropyl)-5H-pyrrolo[2,3-b]pyrazine-7-carboxamide] | 186 |  | 43
8 | C=CC(=O)N1CCC[C@@H](Nc2ncnc3[nH]ccc23)C1 [Example 12, (R)-1-(3-((7H-Pyrrolo[2,3-d]pyrimidin-4-yl)amino)piperidin-1-yl)prop-2-en-1-one] | 392 | 107 | 
9 | C=CC(=O)N1CCC(Nc2cnc3[nH]cc(C(=O)NC4CC(F)(F)C4)c3n2)CC1 [Example 245, 2-[(1-acryloylpiperidin-4-yl)amino]-N-(3,3-difluorocyclobutyl)-5H-pyrrolo[2,3-b]pyrazine-7-carboxamide] | 901 |  | 228
10 | C=CC(=O)N1CC[C@H](F)[C@@H](Nc2ncnc3[nH]ccc23)C1 [Example 4, 1-((3S,4S)-3-((7H-pyrrolo[2,3-d]pyrimidin-4-yl)amino)-4-fluoropiperidin-1-yl)prop-2-en-1-one] | 115 | 19.7 | 
11 | C=CC(=O)N1CC[C@H](Nc2cnc3[nH]cc(C(=O)NC(C)C)c3n2)[C@H](OC)C1 [Example 317, 2-{[(3R,4S)-1-acryloyl-3-methoxypiperidin-4-yl]amino}-N-(propan-2-yl)-5H-pyrrolo[2,3-b]pyrazine-7-carboxamide] | 420 |  | 243
12 | C=CC(=O)N1CCN(c2cnc3[nH]cc(C(=O)NC(C)C)c3n2)C[C@@H]1C [Example 295, 2-[(3S)-4-acryloyl-3-methylpiperazin-1-yl]-N-(propan-2-yl)-5H-pyrrolo[2,3-b]pyrazine-7-carboxamide] | 2670 |  | 334
13 | C=CC(=O)N1CCC(Nc2cnc3[nH]cc(C(=O)N[C@@H](C)CCC)c3n2)CC1 [Example 267, 2-[(1-acryloylpiperidin-4-yl)amino]-N-[(2S)-pentan-2-yl]-5H-pyrrolo[2,3-b]pyrazine-7-carboxamide] | 242 |  | 36
14 | C=CC(=O)N1CCC(Nc2cnc3[nH]cc(-c4ccc(F)nc4)c3n2)CC1 [Example 207, 1-(4-{[7-(6-fluoropyridin-3-yl)-5H-pyrrolo[2,3-b]pyrazin-2-yl]amino}piperidin-1-yl)prop-2-en-1-one] | 2820 |  | 185
15 | C=CC(=O)N1CCC(Nc2cnc3[nH]cc(C(=O)NCC(C)CC(F)(F)F)c3n2)CC1 (stereo not drawn) [Example 253, 2-[(1-acryloylpiperidin-4-yl)amino]-N-(4,4,4-trifluoro-2-methylbutyl)-5H-pyrrolo[2,3-b]pyrazine-7-carboxamide] | 429 | 77.5 | 
16 | C=CC(=O)N1CCN(c2cnc3[nH]cc(C(=O)NC(C)C)c3n2)CC1(C)C [Example 293, 2-(4-acryloyl-3,3-dimethylpiperazin-1-yl)-N-(propan-2-yl)-5H-pyrrolo[2,3-b]pyrazine-7-carboxamide] | 4490 | 300 | 
17 | C=CC(=O)N1CCC(Nc2cnc3[nH]cc(-c4ccccc4)c3n2)CC1 [Example 209, 1-{4-[(7-phenyl-5H-pyrrolo[2,3-b]pyrazin-2-yl)amino]piperidin-1-yl}prop-2-en-1-one] | 6690 |  | 152
18 | C=CC(=O)N1CCN(c2cnc3[nH]cc(C(=O)NC(C)C)c3n2)C[C@@H]1CC(C)C [Example 303, 2-[(3S)-4-acryloyl-3-(2-methylpropyl)piperazin-1-yl]-N-(propan-2-yl)-5H-pyrrolo[2,3-b]pyrazine-7-carboxamide] | 2730 | 294 | 
19 | C=CC(=O)N1C[C@@H]2C[C@H]1CN2c1cnc2[nH]cc(C(=O)NC(C)C)c2n1 [Example 300, 2-[(1S,4S)-5-acryloyl-2,5-diazabicyclo[2.2.1]hept-2-yl]-N-(propan-2-yl)-5H-pyrrolo[2,3-b]pyrazine-7-carboxamide] | 3400 |  | 714
20 | C=CC(=O)N1CC(Nc2ncnc3[nH]ccc23)CCC1CO (stereo not drawn) [Example 52, 1-[2-(Hydroxymethyl)-5-(7H-pyrrolo[2,3-d]pyrimidin-4-ylamino)piperidin-1-yl]prop-2-en-1-one] | 235 |  | 
21 | C=CC(=O)N1CC[C@@H]2CCN(c3ncnc4[nH]ccc34)[C@@H]2C1 (single isomer, unassigned) [Example 8] | 399 |  | 
22 | C=CC(=O)N1C[C@H](Nc2ncnc3[nH]cc(C(N)=O)c23)CC[C@@H]1C [Example 164, 4-{[(3R,6S)-1-Acryloyl-6-methylpiperidin-3-yl]amino}-7H-pyrrolo[2,3-d]pyrimidine-5-carboxamide] |  |  | 1650
23 | C=CC(=O)N1CCC(Oc2cnc3[nH]cc(-c4cncc(F)c4)c3n2)CC1 [Example 213, 1-(4-{[7-(5-fluoropyridin-3-yl)-5H-pyrrolo[2,3-b]pyrazin-2-yl]oxy}piperidin-1-yl)prop-2-en-1-one] |  |  | 318
24 | C=CC(=O)N1CCC(Nc2cnc3[nH]cc(C(=O)NC4CCCC4(F)F)c3n2)CC1 (stereo not drawn) [Example 234, 2-[(1-acryloylpiperidin-4-yl)amino]-N-(2,2-difluorocyclopentyl)-5H-pyrrolo[2,3-b]pyrazine-7-carboxamide] |  | 65.2 | 
25 | C=CC(=O)N1CCC(Nc2cnc3[nH]cc(C(=O)NCC4(O)CCC(C)C4)c3n2)CC1 (stereo not drawn) [Example 235, 2-[(1-acryloylpiperidin-4-yl)amino]-N-[(1-hydroxy-3-methylcyclopentyl)methyl]-5H-pyrrolo[2,3-b]pyrazine-7-carboxamide] |  |  | 1700
26 | C=CC(=O)N1CCC(Oc2cnc3[nH]cc(-c4ccc(F)nc4)c3n2)CC1 [Example 226, 1-(4-{[7-(6-fluoropyridin-3-yl)-5H-pyrrolo[2,3-b]pyrazin-2-yl]oxy}piperidin-1-yl)prop-2-en-1-one] |  |  | 699
